Data on nine compounds can be found in paper PMC5247677 (Scientific Reports, 2017).

Read-outs that look alike come from different tables or passages of the source.

The test system of series [1] is noxious heat response in mice. Description: Hot plate test (50 °C), noxious heat. The following applies: 30 mg/kg i.p., control 25.9 ± 1.8 s, P > 0.05, n = 6–16. It counts as in vivo, mouse (C57BL/6 J). In general terms: In hot-plate and tail-flick tests a longer latency is read as antinociception.
The test system of series [2] is formalin-induced pain in mice. The series can be described thus: Formalin-induced spontaneous pain behaviours. It is filed as in vivo, mouse (C57BL/6 J). As to the method:
(§1) For behavioural assessment we used adult male C57BL/6 J mice or Sprague Dawley rats aged 5–8 weeks. Animals were housed in groups of 2–4 per cage, under 12 h light-dark cycles with standard rodent chow and water ad libitum. All assessments were performed by a blinded investigator unaware of the treatment each animal received. Ethical approval for in vivo experiments in animals was obtained from the University of Queensland, University of Sydney or United Kingdom Home Office animal ethics committee. Experiments involving animals were conducted in accordance with the International Association for the Study of Pain Guidelines for the Use of Animals in Research and the Australian Code of Practice for the Care and Use of Animals for Scientific Purposes, 8th edition (2013).
Formalin (1% v/v) was administered by i.pl injection in mice as previously described. […] Spontaneous pain behaviours were counted from video recordings. Phase I was defined as 0–10 min and Phase II defined as 10–55 min following formalin injection.

Series [3] has as its system carrageenan-induced mechanical allodynia in mice. The series can be described thus: Carrageenan-induced mechanical allodynia (electronic von Frey). It is filed as in vivo, mouse (C57BL/6 J). How it is done:
as §1
(§2) Carrageenan (1% w/v) was administered by i.pl injection in mice as previously described. Behavioural assessment was performed 3 h post-injection. […] Mechanical thresholds were determined using electronic von Frey (MouseMet Electronic von Frey, TopCat Metrology, UK) as previously described. Thermal thresholds were determined using the thermal probe test (MouseMet Thermal, TopCat Metrology) as described.

For series [4], the system named is carrageenan-induced thermal allodynia in mice. The series can be described thus: Carrageenan-induced thermal allodynia (thermal probe test). It counts as in vivo, mouse (C57BL/6 J). Conditions: P > 0.05. How it is done:
as §1, §2

Series [5] has as its system NaV1.7. The following applies: 30 mg/kg; cited from earlier work.
Series [6] concerns NaV1.7. The following applies: cited from earlier work. From the text: In general, spider venom-derived peptides bind to the voltage-sensing domains of NaV channels to modify gating associated with channel activation and inactivation.
For series [7] the following is noted: cited from earlier work. From the text: (§3) However, while NaV1.7 is expressed on axons, it is unlikely to have a major role in action potential propagation, given it has slow recovery from fast inactiv ...
The subject of a further series is rat NaV1.7 channel. Conditions: cited from earlier work.
The subject of series [8] is mice and human lacking functional NaV1.7. The following applies: in vivo; cited from earlier work.
Series [9] concerns acute heat responses in mice. It is filed as in vivo, mouse (C57BL/6 J). The following applies: n = 6. How it is done:
Paw-withdrawal latency in mice pre-administered phlotoxin 1 (i.p. 50 μg/kg; Venomtech, Valbonne, France), thiorphan (i.p. 20 mg/kg), buprenorphine (i.p. 50 μg/kg), or combinations, was determined using the Hargreaves apparatus (Plantar Analgesia Meter, IITC, CA, USA), with three withdrawal responses measured per animal.

Series [10] has as its system inflammatory pain in rodents. Conditions: rodent model of inflammatory pain; cited from earlier work.
Text: as §3

A further series relates to NaV isoforms. Conditions: up to 2 μM; cited from earlier work.

Regarding `Cn1nccc1-c1ccccc1Oc1ccc(S(=O)(=O)Nc2nccs2)cc1C#N` [PF-04856264], the “time to withdrawal, hot plate” value in series [1] was determined as 30.7 ± 3.8 s. Moreover, the “formalin Phase I and Phase II pain behaviours” value in series [2] (30 mg/kg i.p., formalin 1% i.pl., P > 0.05, two-way ANOVA, n = 4–15) is on record as “neither Pn3a (3 mg/kg i.p.) (Fig. 7d) or PF-04856264 (30 mg/kg ip.) (Figure 7e) significantly reduced Phase I or Phase II pain behaviours”. Also, the “paw withdrawal force (PWF)” value in series [3] (PF-04856264 30 mg/kg i.p., control 1.2 ± 0.2 g, P > 0.05, n = 4–12) is recorded as 1.5 ± 0.3 g. Also, the “paw withdrawal temperature (PWT)” value in series [4] (PF-04856264 30 mg/kg i.p., control 44.1 ± 0.5 °C, n = 4–12) came out at 44.4 ± 1.2 °C. Further, the “efficacy in the OD1 model” value in the series on NaV1.7 [5] was “efficacy in the OD1 model at a dose of 30 mg/kg was previously reported”. Besides, in the series with NaV1.7 [6], the “state preference at NaV1.7” value was “preferentially bind to the slow inactivated state”. Moreover, in series [7] (expectation), the blood-brain barrier penetration entry is given as “unlikely to cross the blood-brain barrier”. Moreover, the “potency at the rat NaV1.7 channel” value with rat NaV1.7 channel is “low potency at the rat NaV1.7 channel”.
Turning to `Nc1[nH]ncc1-c1cc(Cl)ccc1Oc1cc(F)c(S(=O)(=O)Nc2cscn2)cc1Cl` [PF-05089771], in the series on NaV1.7 [6], the “state preference at NaV1.7” value is given as “preferentially bind to the slow inactivated state”.
`NCC1(CC(=O)O)CCCCC1` [gabapentin]: the “paw withdrawal force (PWF)” value in series [3] (gabapentin 100 mg/kg i.p., control 1.1 ± 0.3 g, P > 0.05, n = 3–8) is 1.1 ± 0.1 g. In addition, the “paw withdrawal temperature (PWT)” value in [4] (gabapentin 100 mg/kg i.p., control 44.5 ± 0.9 °C, n = 3–8) was 45.4 ± 0.5 °C.
Take `C=CCN1CC[C@]23c4c5ccc(O)c4O[C@H]2C(=O)CC[C@@]3(O)[C@H]1C5` [naloxone]: the reversal of analgesia result in series [8] is on record as “substantially reverses analgesia”.
As for `COc1ccc2c3c1O[C@H]1C(=O)CC[C@@]4(O)[C@@H](C2)N(C)CC[C@]314` [oxycodone], in [2] (oxycodone 1 mg/kg i.p., control 227 ± 14, n = 7–11), the “pain behaviours, formalin Phase II” value is listed as 231 ± 22. In addition, the “paw withdrawal force (PWF)” value in [3] (oxycodone 0.67 mg/kg i.p., control 1.2 ± 0.2 g, n = 4–12) stood at 1.8 ± 0.2 g.
In the case of `O=C(O)CNC(=O)C(CS)Cc1ccccc1` (centres unmarked) [thiorphan], the “time to withdrawal, acute heat” value in series [9] (thiorphan 20 mg/kg i.p., control 5.7 ± 0.9 s) turned out to be 5.0 ± 0.4 s.
In the case of “ProTx-II: NaV1.7 selective spider peptide from the venom of Thrixopelma pruriens”, the “onset of effect at NaV1.7” value with NaV1.7 [6] is on record as “slow onset of effect”. In addition, the plasma levels entry in [7] (rodent) was “plasma levels sufficient to inhibit NaV1.7 in vitro”. In addition, the analgesic activity entry in series [10] is on record as “lack analgesic activity”.
On to buprenorphine, for which the “time to withdrawal, acute heat” value in series [9] (buprenorphine 50 μg/kg i.p., control 6.3 ± 0.5 s) is reported as 7.2 ± 0.5 s.
As to “phlotoxin 1: previously characterized spider peptide NaV1.7 inhibitor”, the “time to withdrawal, acute heat” value in series [9] (phlotoxin 1 50 μg/kg i.p., buprenorphine experiment, control 6.3 ± 0.5 s) was determined as 5.8 ± 0.7 s; in series [9] (phlotoxin 1 50 μg/kg i.p., thiorphan experiment, control 5.7 ± 0.9 s), 7.3 ± 0.9 s. In the series with NaV1.7 [6], the IC50 is 260 nM. Also, the “effect on other NaV isoforms” value with NaV isoforms is on record as “no effect on other NaV isoforms”.

For orientation: IC50 means the concentration that inhibits the measured activity by half.
